The results in this text go back to patent US12252492B2, “Substituted fused pyrrolo-diazepinones and uses thereof” (Northwestern University, priority 2018, dated 2025).

Each structure is given as a SMILES string.

In this assay the test system is A549/ATCC. Description: NCI60 one-dose screen, A549. It counts as cell-based, human. As to conditions: A549 cells; single concentration of 10 μM; NCI60 panel. As for the experimental part:
Anti-cancer activity screening of all compounds was performed by the NCI Developmental Therapeutics Program (DTP) through their NCI60 screening initiative. Assay details can be found at the website dtp.cancer.gov/discovery_development/nci-60/methodology.htm. Information from this website is reproduced here for convenience.
As of early 2007 all compounds submitted to the NCI 60 Cell screen are tested initially at a single high dose (10^-5 M) in the full NCI 60 cell panel. Only compounds which satisfy pre-determined threshold inhibition criteria in a minimum number of cell lines will progress to the full 5-dose assay. The threshold inhibition criteria for progression to the 5-dose screen was selected to efficiently capture compounds with anti-proliferative activity based on careful analysis of historical DTP screening data. The threshold criteria may be updated as additional data becomes available.
The One-dose data will be reported as a mean graph of the percent growth of treated cells and will be similar in appearance to mean graphs from the 5-dose assay. The number reported for the One-dose assay is growth relative to the no-drug control, and relative to the time zero number of cells. This allows detection of both growth inhibition (values between 0 and 100) and lethality (values less than 0). This is the same as for the 5-dose assay, described below. For example, a value of 100 means no growth inhibition. A value of 40 would mean 60% growth inhibition. A value of 0 means no net growth over the course of the experiment. A value of −40 would mean 40% lethality. A value of −100 means all cells are dead. Information from the One-dose mean graph is available for COMPARE analysis.
The human tumor cell lines of the cancer screening panel are grown in RPMI 1640 medium containing 5% fetal bovine serum and 2 mM L-glutamine. For a typical screening experiment, cells are inoculated into 96 well microtiter plates in 100 μL at plating densities ranging from 5,000 to 40,000 cells/well depending on the doubling time of individual cell lines. After cell inoculation, the microtiter plates are incubated at 37° C., 5% CO2, 95% air and 100% relative humidity for 24 h prior to addition of experimental drugs.
After 24 h, two plates of each cell line are fixed in situ with TCA, to represent a measurement of the cell population for each cell line at the time of drug addition (Tz). Experimental drugs are solubilized in dimethyl sulfoxide at 400-fold the desired final maximum test concentration and stored frozen prior to use. At the time of drug addition, an aliquot of frozen concentrate is thawed and diluted to twice the desired final maximum test concentration with complete medium containing 50 μg/ml gentamicin. Additional four, 10-fold or ½ log serial dilutions are made to provide a total of five drug concentrations plus control. Aliquots of 100 μl of these different drug dilutions are added to the appropriate microtiter wells already containing 100 μl of medium, resulting in the required final drug concentrations.
Following drug addition, the plates are incubated for an additional 48 h at 37° C., 5% CO2, 95% air, and 100% relative humidity. For adherent cells, the assay is terminated by the addition of cold TCA. Cells are fixed in situ by the gentle addition of 50 μl of cold 50% (w/v) TCA (final concentration, 10% TCA) and incubated for 60 minutes at 4° C. The supernatant is discarded, and the plates are washed five times with tap water and air dried. Sulforhodamine B (SRB) solution (100 μl) at 0.4% (w/v) in 1% acetic acid is added to each well, and plates are incubated for 10 minutes at room temperature. After staining, unbound dye is removed by washing five times with 1% acetic acid and the plates are air dried. Bound stain is subsequently solubilized with 10 mM trizma base, and the absorbance is read on an automated plate reader at a wavelength of 515 nm. […]
`CC(C)C1C2=C(NCCN1C(=O)C1CCCC1)C(C)(C)N(Cc1ccccc1)C2=O` (stereo not shown) [Compound 8c]: the “reduction of cell growth of A549 non-small cell lung cancer cells” value is on record as 24%.

As to `CC(C)C1C2=C(NCCN1C(=O)c1cccnc1)C(C)(C)N(Cc1ccccc1)C2=O` (stereo not shown) [Compound 8f], the “reduction of cell growth of A549 non-small cell lung cancer cells” value is recorded as 32%.

Take `CC1(C)C2=C(C(=O)N1Cc1ccccc1)C(c1ccco1)N(C(=O)C1CCC1)CCN2` (stereo not shown) [Compound 8m, 7-benzyl-4-(cyclobutanecarbonyl)-5-(furan-2-yl)-8,8-dimethyl-2,3,4,5,7,8-hexahydropyrrolo[3,4-e][1,4]diazepin-6(1H)-one]: the “reduction of cell growth of A549 non-small cell lung cancer cells” value came to 24%.

As for `CC(C)C1C2=C(NCCN1C(=O)c1ccncc1)C(C)(C)N(Cc1ccccc1)C2=O` (stereo not shown) [Compound 8e], the “reduction of cell growth of A549 non-small cell lung cancer cells” value is reported as less than 5%.
